As usually defined, the IC50 is the concentration that gives 50% inhibition. A word on the pIC50: it is the negative decadic logarithm of the IC50, by convention in mol/L.

Series [1] relates to HSV-1 KOS. Kind of series: HSV-1 infectivity plaque assay, virions pretreated with compound, Vero cells. Format: cell-based, herpes simplex virus type 1. The settings on record: for IC50: Table 1, read-out: IC50 (μM) on infectivity of HSV-1 on Vero cells; for potency compared with dUY11: infections of cultured cells.
Series [2] relates to Vero cells. Kind of series: Cytotoxic/cytostatic effects, trypan blue exclusion cell counts. The settings on record: for cytotoxicity (in words): cultured cells.
For series [3], the system named is HSV-1. Kind of series: HSV-1 DNA replication, Southern blot of intracellular viral DNA in infected Vero cells. Format: cell-based, herpes simplex virus type 1. The settings on record: 2 μM, 5 PFU/cell, 1, 5, 18, 24 hpi. As to the method:
To identify whether the amphipathic nucleoside derivatives inhibited either viral DNA replication or viral gene expression, the ability of the amphipathic nucleoside derivatives to inhibit the accumulation of HSV-1 DNA was tested.

The subject of series [4] is HSV-1. Kind of series: Release of HSV-1 DNA/virions by infected Vero cells, Southern blot of extracellular viral DNA. The settings on record: 2 μM, 1, 5, 18, 24 hpi. It is filed as cell-based, herpes simplex virus type 1.
Series [5] relates to HSV-1 KOS. Kind of series: HSV-1 infectivity plaque assay, pretreated virions, Human Foreskin Fibroblasts. Format: cell-based, herpes simplex virus type 1. The settings on record: HFF. From the text:
FIG. 8 is a line graph showing HSV-1 infectivity plotted against concentration of dUY11. […] As expected, dUY11 treated virions were equally non-infectious for Vero cells or Human Foreskin Fibroblasts.

Series [6] relates to HSV-1 KOS. Kind of series: Binding of radiolabeled HSV-1 virions to Vero cells. It is filed as cell-based, herpes simplex virus type 1. The conditions noted are these: 7 μM; adsorption at 4° C. for 1 hour. As to the method: Infectivity was inhibited by pre-treating HSV-1 virions with the amphipathic nucleoside derivatives before infection. These nucleosides may thus inhibit HSV-1 infectivity by, for example, preventing virion binding to cells. Alternatively, they may disrupt extracellular virions (i.e. have virucidal activities). […] The binding of HSV-1 virions pre-treated with dUY11 was assessed. FIG. 11 is a bar graph and photographic images showing HSV-1 binding (A) and infectivity (B). In parallel studies, [35]S-Methionine radiolabeled (approximately 4×10^5 cpm in 2.5×10^5 PFU) (A) or non-radiolabeled HSV-1 KOS (B) were pretreated with no drug (white bar), 7 μM dUY11 (striped bar), or 100 μg/ml heparin (black bar) for 5 minutes at 37° C. The samples were then cooled on ice. Inocula were diluted (1:20, 1:100) in ice-cold serum-free media supplemented with no drug, 7 μM dUY11, or 100 μg/ml heparin. Vero cells were infected with the so-pretreated virions at 4° C. for 1 hour, washed three times with ice-cold serum-free medium and lysed. Bound virions were quantified by liquid scintillation. Error bars represent ranges of three experiments (A).

The test system of series [7] is HSV-1. Kind of series: High-affinity binding of HSV-1 virions, heparin competition. It is filed as cell-based, herpes simplex virus type 1. The settings on record: 7 μM. How it is done: dUY11 was next evaluated for its ability to affect high-affinity binding. FIG. 12 is a line graph showing competition of HSV-1 binding to cells by increasing concentration of heparin. […] Inocula were cooled on ice, and then diluted (1:10) in ice-cold serum-free media with or without 7 μM dUY11. Following 15 minute adsorption onto Vero cells, unbound virions were washed away. […] Virions stripped away by these washes were then quantified by liquid scintillation. Error bars represent ranges of two experiments. […] Therefore, the amphipathic nucleoside derivatives inhibit a step between high-affinity binding and viral DNA replication.

The subject of series [8] is HSV-1 KOS. Kind of series: HSV-1 entry, RFP reporter under HSV-1 ICP0 IE promoter in Vero cells. Format: cell-based, herpes simplex virus type 1. The conditions noted are these: virions pretreated with 2 μM; 24 hpi.
Series [9] deals with HSV-2 strain 186. It is filed as cell-based, HSV type 2. The settings on record: virions pretreated 5 minutes at 37° C.; Vero cells; read-out: IC50, infectivity of HSV-2 strain 186.
Series [10] relates to HSV-2 strain 333. Format: cell-based, HSV type 2. The settings on record: virions pretreated 5 minutes at 37° C.; Vero cells; read-out: IC50, infectivity of HSV-2 strain 333.
Series [11] has as its system VSV. Format: cell-based, vesicular stomatitis virus. The settings on record: virions pretreated 5 minutes at 37° C.; Vero cells; read-out: IC50, infectivity of VSV.
Series [12] deals with SIN virus. It is filed as cell-based, Sindbis virus. The conditions noted are these: virions pretreated 5 minutes at 37° C.; Vero cells; read-out: IC50, infectivity of SIN.
Series [13] deals with HSV-1 KOS. Kind of series: HSV-1 infectivity, Vero cells pretreated with compound, untreated virions. The settings on record: IC50 5.4 μM versus 20 nM. Format: cell-based, herpes simplex virus type 1.
Series [14] relates to HSV-1 KOS. Kind of series: Infectivity of progeny virions produced by treated infected Vero cells, plaque assay. It is filed as cell-based, herpes simplex virus type 1. As to the method: Virions produced by cells infected and treated with said compounds after infection should therefore not be as infectious as virions produced by untreated cells. FIG. 16A is a line graph showing the reduction in infectivity of virions produced by cells treated with amphipathic nucleoside derivatives for 24 hours and plotted against drug concentration. Vero cells were infected with HSV-1 KOS at a multiplicity of infection (MOI) of 3 PFU/cell. […] Cells were harvested at 24 hpi and viral infectivity was evaluated by standard plaque assays. Error bars represent ranges of 3 or more experiments. The virions produced in the presence of dUY11 were 8 orders of magnitude less infectious than those produced by untreated cells (FIG. 16A). The experiments were then repeated, but limiting the exposure of the infected cells to dUY11 to only 1 hour, immediately after removing the viral inoculum (FIG. 16B). […] Infected cells were then incubated without drug for 22 h, then the infectivity of the progeny virions was assessed. […] Therefore, dUY11 interacts with pre-existing cellular factors that are incorporated into virions, such as membrane lipids.

Series [15] concerns HSV-2. Kind of series: Mouse vaginal infection with HSV-2 virions exposed to compound. It is filed as in vivo, mice. From the text:
In order to determine whether an amphipathic nucleoside derivative described herein inhibited viral transmission, a model vaginal infection with a sexually transmitted virus, HSV-2, was used. […] All five mice infected with 3×10^3 infectious virions, and three of the mice infected with 10^3, had to be euthanized between days 7 and 9 due to advanced illness (FIGS. 18E and 19A-B).

Series [16] is described as follows: Dispersion and stability in culture medium. It is filed as physicochemical.
Series [17] concerns Vero cells.
The test system of series [18] is HSV-1. Kind of series: HSV-1 replication, cells treated only after infection with untreated virions. The settings on record: post-adsorption treatment of cells.
Protocol: HSV-1 inocula were incubated at 37° C. for 0 or 5 minutes with 2 μM of dUY11 (left half of each panel) or with DMSO vehicle (right half of each panel). Vero cells were infected with 0.5; 5; 50; 500; 5,000; or 50,000 PFU of treated HSV-1, as indicated in the cartoon (top panel), washed and overlaid with Dulbecco's Modified Eagle Media (DMEM) supplemented with 5% fetal bovine serum (FBS) and 2% methylcellulose (MC).
Tests were performed to determine whether dUY11 preferentially targets the viral envelope or the cell membrane. […] HSV-1 KOS (200 PFU) were incubated with 0, 0.002, 0.007, 0.02, 0.07, 0.2, 0.7, 2, 7, 20 or 70 μM dUY11 for 5 minutes at 37° C. Vero cells were then infected with so-pretreated virions for 1 hour, washed and overlaid with medium supplemented with 5% FBS and 2% MC (▪). Alternatively, untreated inocula were used to infect untreated Vero cells (▴) or Vero cells pretreated at 37° C. for up to 60 minutes with 0, 2, 7, 20 or 70 μM dUY11 (●). Non-pretreated infected cells were then overlayed with medium supplemented with 5% FBS and 2% MC supplemented with 0, 2, 7, 20 or 70 μM dUY11. […] Error bars represent ranges of three or more experiments.
Where [19] appears, read: 10^3 or 3×10^3 HSV-2 virions exposed to 70 μM, vaginal infection.

pIC50: −log10 of the molar value. “And” between values parts separate entries of the source, which are not always exact repeats. Identical values can stand only once. “Also recorded” adds a separate entry of the source. Like-named read-outs stand apart in the source and are kept apart here. A value given as a limit tells only on which side of the number the result lay.

Consider `O=c1[nH]c(=O)n([C@@H]2O[C@H](CO)C(O)C2O)cc1C#Cc1ccc2c3cccc4cccc(c5cccc1c52)c43` (some centres unmarked) [aUY11, 5-(Perylen-3-ylethynyl)-arabino-uridine], for which the IC50 in [1] (Human alphaherpesvirus 1, Vero) stood at 0.075 µM. Besides, the “potency compared with dUY11” value in series [1] is on record as “approximately as potent as dUY11”. Besides, the “cytotoxicity (in words)” value in series [2] is given as “neither were cytotoxic”.

`O=c1[nH]c(=O)n([C@H]2CC[C@@H](CO)O2)cc1C#Cc1ccc2c3cccc4cccc(c5cccc1c52)c43` [ddUY11, 5-(Perylen-3-ylethynyl)-2′,3′-dideoxyuridine]: the IC50 in [1] (Human alphaherpesvirus 1, Vero) is 0.045 µM. Also, the “potency compared with dUY11” value in [1] is recorded as “approximately as potent as dUY11”. In addition, the “cytotoxicity (in words)” value in series [2] was “neither were cytotoxic”.

Regarding `O=c1[nH]c(=O)n([C@H]2C[C@H](O)[C@@H](CO)O2)cc1C#Cc1ccc2c3cccc4cccc(c5cccc1c52)c43` [dUY11], in [3], the “inhibition of HSV-1 DNA replication (intracellular viral DNA)” value is “does not inhibit HSV-1 DNA replication; also recorded: does not inhibit viral DNA replication at any time tested”. Further, in [4], the “inhibition of release of HSV-1 DNA (extracellular viral DNA)” value is recorded as “does not inhibit the release of progeny HSV-1 DNA”. Besides, in [1] (20 nM (IC50) at 37° C., Vero cells), the “time to inhibit HSV-1 infectivity by 50%” value was 220 s. Further, the “infectivity with virions pretreated with 700 nM” value is “fully inhibited” in series [1] (700 nM, Vero cells) and “fully inhibited” in series [5] (700 nM). Besides, in series [1] (2 μM, inocula incubated 0 or 5 min at 37° C.), the “effect on viral infectivity, plaque assay” value is “inhibits viral infectivity”. Also, the “infectivity in parallel to binding study” value in series [1] (7 μM) was “did abrogate infectivity”. The IC50 in series [1] came to 0.05 µM. Further, the “maximum inhibition, virion pretreatment” value in [1] (up to 70 μM) was found to be 100%. The pIC50 was 7.70 and 7.60 and 7.62 in series [1] (virions pretreated 5 minutes at 37° C., Vero cells, calculated graphically, read-out: IC50, HSV-1 infectivity); 7.70 in series [5] (virions pretreated 5 minutes at 37° C.); 7.31 in [9]; 7.19 in series [10]; 8.22 in series [11]; 7.24 in [12]. The same compound had a negative logarithm of the IC50 (pIC50) in [14] (cells exposed for only 1 hour) of 5.41. Moreover, the “inhibition of HSV-1 virion binding to cells” value in series [6] is reported as “did not inhibit virion binding; also recorded: does not inhibit HSV-1 binding”. For the same compound, the virucidal activity result in series [7] is listed as “not virucidal”. Also, the “block of low- or high-affinity binding” value in [7] (heparin washes 0 to 1,000 μg/ml) is recorded as “does not block either low- or high-affinity binding; also recorded: does not block high-affinity binding”. Further, the “HSV-1 entry (RFP expression in reporter cells)” value in series [8] is “no detectable fluorescence; also recorded: inhibits HSV-1 entry”. The “fold higher concentration for cell pretreatment versus virion pretreatment” value in series [13] amounted to 270 fold. The “reduction in infectivity of virions budded from treated cells” value in series [14] (cells exposed for only 1 hour after removing inoculum) is 6 orders of magnitude. Moreover, the “effect on infectivity of progeny virions (in words)” value in series [14] (cells treated for 24 or only 1 hours) is recorded as “inhibits the infectivity of progeny virions”. In addition, the “reduction in infectivity of virions produced by treated cells” value in [14] (cells treated for 24 hours after infection, up to 2 μM) was 8 orders of magnitude. For the same compound, in series [15] (setting [19]), the “mice shedding detectable infectious virus” value was “None of the ten mice”. Further, the “mice showing clinical signs of infection” value in [15] (setting [19]) is “None of the ten mice”. Besides, the “protection of mice from vaginal (genital) infection” value in series [15] (virions exposed to 70 μM) is given as “protects mice from genital infection; also recorded: protects from vaginal infection with HSV-2; also recorded: non-infectious to mice”. The stability in medium entry in series [16] (150 μM) is listed as “not stable in medium for long periods”. Further, the “concentration at which homogeneously dispersed in media” value in [16] (culture media) is reported as “up to 70,000 nM”. Also, the “cytotoxicity (in words)” value in [17] is reported as “non-cytotoxic”. In addition, the “safety index (SI)” value in [2] (50% cytotoxicity not reached) is > 7,500. Moreover, the “effect on viral replication when added after infection” value in series [18] is “no effect on viral replication; also recorded: no effect on HSV-1 replication”.

These data come from patent US8633308B2, “Compounds for preventing or treating viral infections and methods of use thereof” (The Governors of The University of Alberta, priority 2007, dated 2014).
